Results published in US20240076667A1, “APPLICATION OF ANTISENSE OLIGONUCLEOTIDE TARGETING PBX1 PROMOTER REGION G-QUADRUPLEX IN PREPARATION OF MEDICINE FOR TREATING MELANOMA” (JILIN UNIVERSITY, priority 2022, published 2024).

Assays:
[1] = tested on: B16-F10 cells; experiment: In vivo tumor metastasis assay, B16-F10 tail vein injection; parameters: species or system mice; settings: B16-F10 tail vein; PDS 5 mg/kg twice a day, 16 consecutive days
Method: In vivo tumor metastasis assay: 2×10^5 B16-F10 cells are injected into the tail vein of tail vein tumor. According to solutions formulated by the NCI Animal Care and Use Committee, metastatic endpoints are determined for each experiment by maximal primary tumor burden and/or appearance of moribund mice in all treatment groups. PDS (5 mg/kg) is administered twice a day, for 16 consecutive days.
(§1) Bioluminescent tumor cell tracking: in vivo whole-animal imaging, anesthetized mice are injected intraperitoneally with 3 mg of d-luciferin (MCE, USA). Luminescence data is collected on an IVIS system (Perkin Elmer, USA). For live tissue imaging, tissues are perfused with PBS, harvested, and incubated in PBS with 1 μg/ml-1d-luciferin. Data analysis is performed using an IVIS Image software package.

[2] = tested on: patient-derived melanoma xenograft (PDX); experiment: PDX model of melanoma in NCG mice; assay type: in vivo; settings: PDX; intravenous injection 20 mg/kg every two days for 21 days; vs PBX1 ASO scramble
Method: PDX model of melanoma: fresh tumor tissues are collected immediately after surgery, placed in RPMI 1640 medium containing penicillin/streptomycin (100 U/ml; 100 μg/ml), fungal zone (1 μg/ml) and Genta Mycin (50 μg/ml) (all from Gibco, USA) (4,5). According to the institutional review and the ethical guidelines for this study approved by the Ethics Committee of the Second Hospital of Jilin University, fresh tumor samples from patients suffering from melanoma are collected for transplantation with informed consent. The mice were kept and all procedures are performed under the approval and supervision of the Institutional Animal Care and Use Committee (IACUC) of the School of Public Health of Jilin University (Changchun, China). Necrotic tissues are excised before transplantation, and tumor tissues are minced to a size of 2×2×2 mm^3, and implanted subcutaneously in the flank of 6-week-old NCG male mice to generate first-generation (F1) PDX mice. Successfully transplanted tumor models are passaged and stored using standard methods. H&E staining is used to evaluate the morphology of patient tumor specimens and xenografts of established PDX models. Treatment with ASO Scr or ASO (intravenous injection, 20 mg/kg) is initiated when the tumor volume of the mice reached 220-280 mm^3. Tumor growth and body weight measurements are performed. Tumors are dissected at the end of treatment for further processing for RNA, protein and histological analysis.
Control:mG*mT*mC*mC*mA*mC*mA*mA*mA*mC*mA*mC*mA*mA*mC*mT*mC* mC*mT*mG*). […] This example also establishes short-term cultures of patient-derived melanoma xenograft (PDX)-derived tumor cells (PDCs) (FIG. 5D). […] To further expand the analysis, this embodiment establishes the PDX model of melanoma, and […] is administered intravenously (intravenous injection) every two days for 21 days.

[3] = tested on: A375 melanoma cells; experiment: In vivo tumor growth experiment, A375 xenograft in nude mice
Method: In vivo tumor growth experiment: to evaluate the effect of PBX1 on growth of in vivo tumors, before inoculation, male nude mice of 6 weeks (BALB/C background) are randomly divided into designated groups (5 per group). 1×10^6 A375 melanoma cells are injected subcutaneously into the upper flank of the back of each mouse. After injection, the mice are administered with PDS drug for treatment for 21 days (once every two days), and after the mice are sacrificed, the tumor weight is measured.
as §1

NCCOc1cc(C(=O)Nc2cc(OCCN)c3ccccc3n2)nc(C(=O)Nc2cc(OCCN)c3ccccc3n2)c1 [PDS, Pyridostatin]
metastasis of xenograft tumors (lung) [1]: remarkably inhibits | tumor growth [2]: inhibits | growth of xenograft tumors ([3]; A375 subcutaneous, nude mice, treatment 21 days once every two days): remarkably inhibits | expression of PBX1 in xenograft tumors ([3]; qRT-PCR and IHC staining): downregulating
